Assay results from patent US8883680B2, “Herbicide combinations with particular sulphonyl ureas” (Bayer Cropscience AG, priority 2006, dated 2014).

Assays:
Assay type in all cases: in vivo
[1] = system: Mimosa pigra; test: Herbicidal action against woody shrub weeds (greenhouse trials); details: 672 h
Procedure: (§1) The seeds or rhizome pieces of typical harmful plants were placed into sandy loam soil in round pots, size 13, covered with soil and grown in a greenhouse under good growth conditions. After the harmful plants had emerged, they were treated, as a rule at the 2- to 3-leaf stage, with various dosages of the compositions according to the invention at a water application rate of 100 to 400 I/ha (converted).
(§2) After the treatment (approx. 4 weeks after application), the herbidical activity of the active compounds or active compound mixtures was scored visually by comparing the treated plants with untreated controls. Damage and development of all above-ground parts of the plants was recorded. Scoring was done on a percentage scale (100% action=all plants dead; 50% action=50% of the plants and green plant parts dead; 0% action=no discernible action).
(§3) The results are listed in the tables below, where the activity measured for the independent use of the active compounds (A) and (B) is stated in brackets.
(§4) The plants were cultivated to the 5- to 6-leaf stage. Herbicide application and scoring of the trial were carried out as in Example 1.

[2] = system: Acacia farnesiana; test: as above; details: Vachellia farnesiana, 672 h
Procedure: as §1, §2, §3, §4

[3] = system: Veronica persica; test: Herbicidal action against weeds (greenhouse trials), post-emergence; details: 672 h, 2- to 3-leaf stage, scored visually approx. 4 weeks after application
Procedure: as §1, §2, §3

[4] = system: Lamium amplexicaule; test: as above; details: 672 h, 2- to 3-leaf stage, scored visually approx. 4 weeks after application
Procedure: as §1, §2, §3

[5] = application rate 40 g of ai/ha, 5- to 6-leaf stage, scored visually approx. 4 weeks after application

With `COc1cc(OC)nc(NC(=O)NS(=O)(=O)N(C)S(C)(=O)=O)n1` [Amidosulfuron, 1-(4,6-dimethoxypyrimidin-2-yl)-3-mesyl(methyl)sulfamoylurea] the inhibition at 40 g/ha [1, 5] was 20%, the inhibition at 40 g/ha [2, 5] was 43% and the inhibition at 20 g/ha ([3]; application rate 20 g of ai/ha) was 20%. For the same compound, the inhibition at 20 g/ha ([4]; application rate 20 g of ai/ha) was 18%.
In the case of `Nc1cc(Cl)nc(C(=O)O)c1Cl` [Aminopyralid, 4-amino-3,6-dichloropyridine-2-carboxylic acid], the inhibition at 60 g/ha ([1]; read-out: Mimosa pigra % activity) is reported as 73% and the inhibition at 60 g/ha ([2]; read-out: Acacia farnesiana % activity) is reported as 55%.
With `Nc1c(Cl)c(Cl)nc(C(=O)O)c1Cl` [Picloram, 4-amino-3,5,6-trichloropyridine-2-carboxylic acid] the inhibition at 60 g/ha ([3]; application rate 60 g of ai/ha) was 62% and the inhibition at 60 g/ha ([4]; application rate 60 g of ai/ha) was 75%.
